Measurements reported in patent publication US9017673B2, “Peptide analogues comprising at least one type of aminoacylaza-$g(b)3and the use thereof, in particular for therapy” (Centre National de la Recherche Scientifique, priority 2003, dated 2015).
Entries after “also recorded” stand apart in the source; their conditions may differ. Square brackets hold non-standard residues; d marks the D form. NαhTyr = N-alpha-homo tyrosine (backbone-modified residue); NαhAla = N-alpha-homo alanine (backbone-modified residue); NαhLeu = N-alpha-homo leucine (backbone-modified residue); NαhLys = N-alpha-homo lysine (backbone-modified residue)

Experiments:
[1] = test system: T lymphocytes of BALB/c mice injected with the modified peptide 88-99 of the histone H4; experiment: Mirror test: T lymphocytes of mice injected with the modified 88-99 H4 peptides, stimulated ex vivo with the analogue and the parent peptide 88-99; type: in vivo; settings: for immunogenicity (induces responses against the homologous peptide): mice injected with the analogue subcutaneously with Freund's adjuvant; for cross reaction of the generated T cells with the parent peptide 88-99: mice injected with the analogue, ex vivo stimulation with parent peptide 88-99
Procedure: In addition, a mirror manipulation of the foregoing was performed, namely response tests on the T lymphocytes of mice injected with the modified peptides and stimulation ex vivo with the parent peptide (88-99). After injection of the analogues, analyses were performed on cell cultures with the said analogues and the parent peptide 88-99. The following results are observed:
In addition, a mirror experiment of the foregoing was performed, namely an experiment on mice injected with the peptide G and stimulation ex vivo with increasing quantities of the parent peptide (88-99).
FIG. 2: Response tests on the T lymphocytes of BALB/c mice injected with the modified peptide 88-99 A or with the modified peptide 88-99 D of the histone H4 subcutaneously with Freund's adjuvant. The stimulation index is shown on the y-axis and the different concentrations of peptide are shown on the x-axis.
FIG. 3: Response tests on the T lymphocytes of BALB/c mice injected with the modified peptide 88-99 E of the histone H4 subcutaneously with Freund's adjuvant. The stimulation index is shown on the y-axis and the different concentrations of peptide are shown on the x-axis.
FIG. 5: Response tests on the T lymphocytes of BALB/c mice injected with the modified peptide 88-99 G of the histone H4 subcutaneously with Freund's adjuvant. The stimulation index is shown on the y-axis and the different concentrations of peptide are shown on the x-axis.

[2] = test system: T lymphocytes of BALB/c mice immunized with the parent peptide 88-99H4; experiment: T lymphocyte proliferation (tritiated thymidine) of mice immunized with parent peptide 88-99H4, restimulated in culture with parent peptide or analogues; type: cell-based; settings: mice immunized with parent 88-99H4; for activity compared with that of the parent peptide 88-99: T cell restimulation; for index of stimulation (IS): restimulation peptide 100 μM (printed "to 100 μM"), FIG. 4; for index of stimulation (IS) relative to the wells without peptide: restimulation peptide 90 μM (printed "to 90 μM"), FIG. 1
Procedure: BALB/c mice were immunized with the parent peptide 88-99H4 and in cell cultures the T lymphocytes of these mice were restimulated with the same peptide or with the analogues A-E. The cell proliferation was measured by the incorporation of tritiated thymidine and the index of stimulation (1S) relative to the wells without peptide was calculated. The tests are performed in triplicate and the experiment is performed several times in independent experiments.
The same experiments were performed with peptide G, (corresponding to the sequence SEQ ID NO: 7).
(§1) FIG. 1: Response tests on the T lymphocytes of BALB/c mice injected with the parent peptide 88-99 of the histone H4 subcutaneously with Freund's adjuvant, and stimulation ex-vivo with the parent peptide or the analogue E; the stimulation index is shown on the y-axis and the different concentrations of peptide are shown on the x-axis.
as §1, with “4:” for “1:”, “G;” for “E;”

Substance | immunogenicity (induces responses against the homologous peptide) [1] | cross reaction of the generated T cells with the parent peptide 88-99 [1] | activity compared with that of the parent peptide 88-99 [2] | index of stimulation (IS) [2] | index of stimulation (IS) relative to the wells without peptide [2]
^88H2N-Tyr-Nα-hAla-Leu-Lys-Arg-Gln-Gly-Arg-Thr-Leu-Tyr-Gly-OH^99 (H-Y[NαhAla]LKRQGRTLYG-OH; also: Nα-homo amino acid residue) [peptide A] | immunogenic | no cross reaction with the parent peptide |  |  | 
^88H2N-Tyr-Ala-Leu-Nα-hLys-Arg-Gln-Gly-Arg-Thr-Leu-Tyr-Gly-OH^99 (H-YAL[NαhLys]RQGRTLYG-OH; also: Nα-homo amino acid residue) [peptide D] | immunogenic | no cross reaction with the parent peptide |  |  | 
^88H2N-Tyr-Ala-Leu-Lys-Arg-Gln-Gly-Arg-Thr-Nα-hLeu-Nα-hTyr-Gly-OH^99 (H-YALKRQGRT[NαhLeu][NαhTyr]G-OH; also: Nα-homo leucine and tyrosine residues) [peptide G] | immunogenic | react by cross reaction with the homologous peptide G and in particular with the parent peptide with the same intensity | analogous | 16.6 | 
H-Tyr-Ala-Leu-Lys-Arg-Gln-Gly-Arg-Thr-Leu-Tyr-Gly-OH (H-YALKRQGRTLYG-OH; listed as Homo sapiens) [parent peptide 88-99H4, reference compound] |  |  |  | 16.9 | 6.7
^88H2N-Tyr-Ala-Leu-Lys-Arg-Gln-Gly-Arg-Thr-Nα-hLeu-Tyr-Gly-OH^99 (H-YALKRQGRT[NαhLeu]YG-OH; also: Nα-homo leucine residue) [peptide E] | immunogenic | react by cross reaction with the parent peptide; also recorded: cross reacts perfectly | analogous, or even superior depending on the experiments |  | 7.7
